The values below come from patent US10239881B2, “RIPK2 inhibitors and method of treating cancer with same” (University Health Network, priority 2014, dated 2019).

The target of one assay is human RIPK2 kinase (Homo sapiens (Human), UniProt O43353). Kind of assay: RIPK2 inhibition assay (indirect ELISA). It is filed as biochemical. To be noted: His-RIPK2 0.6 nM, 6 μM ATP; read-out: RIPK2 IC50 range. The protocol:
Active RIPK2 was purchased from Life Technologies as His-tagged of catalityc domain (amin acids 1-299) of human RIPK2 kinase expressed in insect cells. Amino terminal 6 histidine, sumo tagged human TTK (residues 1-275) was expressed in E. coli, and purified to >95% homogeneity by Ni^2+ agarose, gel filtration, and ion exchange chromatography.
RIPK2 activity was measured using an indirect ELISA detection system. His—RIPK2 (0.6 nM) was incubated in the presence of 6 μM ATP (Sigma cat # A7699), 20 mM Hepes, pH 7.5, 1 mM EGTA, 2.5 mM MgCl2, 2.5 mM MnCl2 and 0.01% Triton X-100 in a 96 well microtitre plate pre-coated with amino terminal 6 histidine, sumo tagged TTK (amino acid residues 1-275). The reaction was allowed to proceed for 30 minutes, followed by 5 washes of the plate with Wash Buffer (phosphate buffered saline supplemented with 0.2% Tween 20), and incubation for 30 minutes with a 1:3000 dilution of primary antibody (Cell Signaling cat #9381). The plate was washed 5 times with Wash Buffer, incubated for 30 minutes in the presence of secondary antibody coupled to horse radish peroxidase (BioRad cat #1721019, 1:3000 concentration), washed an additional 5 times with Wash Buffer, and incubated in the presence of TMB substrate (Sigma cat # T0440). The colorimetric reaction was allowed to continue for 5 minutes, followed by addition of stop solution (0.5 N H2SO4), and quantified by detection at 450 nm with either a monoChromatic or filter based plate reader (Molecular Devices M5 or Beckman DTX880, respectively).
Compound inhibition was determined at either a fixed concentration (10 μM) or at a variable inhibitor concentration (typically 50 μM to 0.1 μM in a 10 point dose response titration). Compounds were pre-incubated in the presence of enzyme for 15 minutes prior to addition of ATP and the activity remaining quantified using the above described activity assay. The % Inhibition of a compound was determined using the following formula; % Inhibition=100×(1−(experimental value−background value)/(high activity control−background value)). The IC50 value was determined using a non-linear 4 point logistic curve fit (XLfit4, IDBS) with the formula; (A+(B/(1+((x/C)^D)))), where A=background value, B=range, C=inflection point, D=curve fit parameter.
For orientation: An ELISA detects its analyte on a solid surface through an enzyme-linked reagent.

Assay [1] concerns HCT116 colon cancer cells. Kind of assay: Sulforhodamine B cell growth inhibition assay. Format: cell-based. The note with it: Homo sapiens, HCT-116, 120 h; 5 days, SRB; read-out: Colon GI50 range HCT116. The method, then: (§1) Breast cancer cells (MDA-MB-231 and MDA-MB-468), colon cancer cells (HCT116 and HT-29) and ovarian cancer cells (SKOV-3 and OVCAR-3) were seeded (1000 to 4000 in 80 μL per well depending on the cell growth rate) into 96 well plates 24 hours before compound overlay. Compounds were prepared as 10 mM stock solutions in 100% DMSO which were diluted with DMEM (Dulbecco's Modified Eagle's Medium) cell growth Medium (Invitrogen, Burlington, ON, Canada) containing 10% FBS (Fetal Bovine Serum) to concentrations ranging from 50 nM to 250 μM. Aliquots (20 μL) from each concentration were overlaid to 80 μL of the pre-seeded cells in the 96 well plates to make final concentrations of 10 nM to 50 μM. The cells were cultured for 5 days before the Sulforhodamine B assay (SRB) was performed to determine the compound's cell growth inhibition activity.
(§2) The cells are fixed in situ by gently aspirating off the culture media and adding 50 μL ice cold 10% trichloroacetic acid per well and incubate at 4° C. for 30-60 min. The plates are washed with H2O five times and allowed to air dry for 5 min. Addition of 50 μL 0.4% (w/v) SRB solution in 1% (v/v) acetic acid to each well and incubation for 30 min at rt completes the staining reaction. Following staining, plates are washed four times with 1% acetic acid to remove unbound dye and then allowed to air dry for 5 min. The stain is solubilized with 100 μL of 10 mM Tris pH 10.5 per well. Absorbance is read at 570 nm. The percentage (%) of relative growth inhibition was calculated by comparing to DMSO treated only cells (100%). GI50's were determined for compounds with cytotoxic activity. The GI50 was calculated using GraphPad PRISM software (GraphPad Software, Inc., San Diego, Calif., USA). GI50 (growth inhibition) is the compound concentration that causes 50% inhibition of cell growth.
(§3) In Table 2 lists GI50 value ranges for compound examples against breast cancer cell lines (MDA-MB-231, MDA-MB-468), colon cancer cell lines (HCT116, HT-29) and ovarian cancer cell lines (OVCAR-3, SKOV-3) are given. […] The GI50 ranges are indicated as “A,” “B,” and “C,” for values less than or equal to 1 μM; those greater than 1 μM and less than or equal to 10 μM; and those greater than 10 μM, respectively.

A further assay deals with HT-29 colon cancer cells. Kind of assay: Sulforhodamine B cell growth inhibition assay. Format: cell-based. The note with it: Homo sapiens, HT-29, 120 h; 5 days, SRB; read-out: Colon GI50 range HT29. The protocol:
as §1, §2, §3

For assay [2], the system named is MDA-MB-231 breast cancer cells. Kind of assay: Sulforhodamine B cell growth inhibition assay. Format: cell-based. The note with it: Homo sapiens, MDA-MB-231, 120 h; 5 days, SRB; read-out: Breast GI50 range MDA-MB-231. The protocol:
as §1, §2, §3

Assay [3] has as its system SKOV-3 ovarian cancer cells. Description: Sulforhodamine B cell growth inhibition assay. It is filed as cell-based. To be noted: Homo sapiens, SK-OV-3, 120 h; 5 days, SRB; read-out: Ovarian GI50 range SKOV-3. The method, then: as §1, §2, §3
The test system of assay [4] is OVCAR-3 ovarian cancer cells. Description: Sulforhodamine B cell growth inhibition assay. It is filed as cell-based. To be noted: Homo sapiens, OVCAR-3, 120 h; 5 days, SRB; read-out: Ovarian GI50 range OVCAR-3. The method, then:
as §1, §2, §3

human RIPK2 kinase, sequence (O43353 1-299): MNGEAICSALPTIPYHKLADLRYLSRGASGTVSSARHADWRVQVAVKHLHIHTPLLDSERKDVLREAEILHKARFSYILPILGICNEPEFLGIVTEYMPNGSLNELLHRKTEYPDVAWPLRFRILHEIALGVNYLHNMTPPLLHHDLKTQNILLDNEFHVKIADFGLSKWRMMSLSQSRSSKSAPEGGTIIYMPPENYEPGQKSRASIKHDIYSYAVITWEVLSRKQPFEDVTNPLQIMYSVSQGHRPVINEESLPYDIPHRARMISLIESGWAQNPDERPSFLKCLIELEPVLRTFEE

The IC50 is the midpoint of a concentration-inhibition curve. As to `Cc1ccccc1-c1cc2nc(NCC3(N4CCOCC4)CCCC3)ncc2[nH]1` [Example A26, N-((1-morpholino-cyclopentyl)methyl)-6-(o-tolyl)-5H-pyrrolo[3,2-d]pyrimidin-2-amine], the 50% inhibitory concentration (IC50) at human RIPK2 kinase is over 0.5 µM.

As to `Cc1ccccc1-c1cc2nc(NCC3CCOCC3)ncc2[nH]1` [Example A24, N-((tetrahydro-2H-pyran-4-yl)methyl)-6-(o-tolyl)-5H-pyrrolo[3,2-d]pyrimidin-2-amine], at human RIPK2 kinase, the 50% inhibitory concentration (IC50) lay within 0.1 to 0.5 µM.

In the case of `CN1CCN(c2cccc(Nc3ncc4[nH]c(-c5ccsc5)cc4n3)c2)CC1` [Example A11, N-(3-(4-methylpiperazin-1-yl)phenyl)-6-(thiophen-3-yl)-5H-pyrrolo[3,2-d]pyrimidin-2-amine], the concentration for half-maximal inhibition (IC50) on human RIPK2 kinase is at most 0.1 µM.

Consider `c1cc(Nc2ncc3[nH]c(C4CCOCC4)cc3n2)cc(N2CCOCC2)c1` [Example A14, N-(3-morpholino-phenyl)-6-(tetrahydro-2H-pyran-4-yl)-5H-pyrrolo[3,2-d] pyrimidin-2-amine], for which the IC50 on human RIPK2 kinase is over 0.5 µM.

In the case of `Cc1ccccc1-c1cc2nc(Nc3ccc(CN4CCOCC4)cc3)ncc2[nH]1` [Example A15, N-(4-(morpholino-methyl)phenyl)-6-(o-tolyl)-5H-pyrrolo[3,2-d] pyrimidin-2-amine], the IC50 on human RIPK2 kinase is at most 0.1 µM.

For `Cc1ccccc1-c1cc2nc(N[C@H]3CC[C@@H](O)CC3)ncc2[nH]1` [Example A22, (1s,4s)-4-((6-(o-tolyl)-5H-pyrrolo[3,2-d]pyrimidin-2-yl)amino) cyclohexanol], the half-maximal inhibitory concentration (IC50) at human RIPK2 kinase is over 0.5 µM.

`Clc1ccccc1-c1cc2nc(Nc3cccc(N4CCOCC4)c3)ncc2[nH]1` [Example A20, 6-(2-chloro-phenyl)-N-(3-morpholino-phenyl)-5H-pyrrolo[3,2-d]pyrimidin-2-amine]: the IC50 at human RIPK2 kinase was at most 0.1 µM.

As a reminder, the GI50 is the concentration at which growth is held to half of that of the control. Take `Cc1ccccc1-c1cc2nc(Nc3cccc(CN4CCN(C)CC4)c3)ncc2[nH]1` [Example A9, N-(3-((4-methylpiperazin-1-yl)methyl)phenyl)-6-(o-tolyl)-5H-pyrrolo[3,2-d] pyrimidin-2-amine]: the IC50 at human RIPK2 kinase was at most 0.1 µM. The GI50 was 1 to 10 µM in assay [1]; at most 1 µM in the assay on HT-29 colon cancer cells; over 10 µM in assay [2]; at most 1 µM in assay [3]; at most 1 µM in assay [4].

On to `COc1ccccc1-c1cc2nc(Nc3cccc(N4CCOCC4)c3)ncc2[nH]1` [Example A25, 6-(2-methoxy-phenyl)-N-(3-morpholino-phenyl)-5H-pyrrolo[3,2-d] pyrimidin-2-amine], for which the IC50 at human RIPK2 kinase fell in the range of 0.1 to 0.5 µM.

For `c1ccc(Nc2ncc3[nH]c(-c4ccccc4)cc3n2)cc1` [Example A1, N,6-diphenyl-5H-pyrrolo[3,2-d]pyrimidin-2-amine], the IC50 at human RIPK2 kinase was over 0.5 µM.

As to `Cc1ccccc1-c1cc2nc(N[C@H]3CC[C@@H](O)CC3)ncc2[nH]1` [Example A21, (1r,4)-4-((6-(o-tolyl)-5H-pyrrolo[3,2-d]pyrimidin-2-yl)amino) cyclohexanol], the IC50 at human RIPK2 kinase is 0.1 to 0.5 µM.

`Cc1nc(Nc2ncc3[nH]c(-c4ccccc4C)cc3n2)cc(N2CCN(CCO)CC2)n1` [Example A5, 2-(4-(2-methyl-6-((6-(o-tolyl)-5H-pyrrolo[3,2-d]pyrimidin-2-yl)amino)pyrimidin-4-yl)piperazin-1-yl)ethanol]: the IC50 on human RIPK2 kinase is over 0.5 µM.

As for `Cc1ccccc1-c1cc2nc(Nc3ccc(CN4CCN(C)CC4)cc3)ncc2[nH]1` [Example A18, N-(4-((4-methylpiperazin-1-yl)methyl)phenyl)-6-(o-tolyl)-5H-pyrrolo[3,2-d] pyrimidin-2-amine], the IC50 on human RIPK2 kinase is at most 0.1 µM.

`CN1CCN(c2cccc(Nc3ncc4[nH]c(C5CCCC5)cc4n3)c2)CC1` [Example A10, 6-cyclopentyl-N-(3-(4-methylpiperazin-1-yl)phenyl)-5H-pyrrolo[3,2-d]pyrimidin-2-amine]: on human RIPK2 kinase, the half-inhibitory concentration (IC50) is over 0.5 µM.

For `Cc1ccccc1-c1cc2nc(Nc3ccc(N4CCOCC4)cc3)ncc2[nH]1` [Example A8, N-(4-morpholino-phenyl)-6-(o-tolyl)-5H-pyrrolo[3,2-d]pyrimidin-2-amine], the IC50 at human RIPK2 kinase is at most 0.1 µM. Besides, the GI50 (in assay [1]; with HT-29 colon cancer cells; in assay [2]; in assay [3]; in assay [4]) was over 10 µM in each case.

Turning to `Cc1ccccc1-c1cc2nc(NC3CCOCC3)ncc2[nH]1` [Example A23, N-(tetrahydro-2H-pyran-4-yl)-6-(o-tolyl)-5H-pyrrolo[3,2-d]pyrimidin-2-amine], the half-inhibitory concentration (IC50) at human RIPK2 kinase is over 0.5 µM.

Turning to `Cc1cccc(C)c1-c1cc2nc(Nc3cccc(N4CCN(C)CC4)c3)ncc2[nH]1` [Example A6, 6-(2,6-dimethylphenyl)-N-(3-(4-methylpiperazin-1-yl)phenyl)-5H-pyrrolo[3,2-d]pyrimidin-2-amine], the IC50 at human RIPK2 kinase is at most 0.1 µM. The concentration for 50% growth inhibition (GI50) in assay [1] is 1 to 10 µM; in the assay with HT-29 colon cancer cells it was at most 1 µM; in assay [2] it was 1 to 10 µM; in assay [3], at most 1 µM; in assay [4], at most 1 µM.

Consider `Cc1ccccc1-c1cc2nc(Nc3cccc(CN4CCOCC4)c3)ncc2[nH]1` [Example A7, N-(3-(morpholino-methyl)phenyl)-6-(o-tolyl)-5H-pyrrolo[3,2-d] pyrimidin-2-amine], for which the IC50 at human RIPK2 kinase is at most 0.1 µM. In addition, the concentration for 50% growth inhibition (GI50) (in assay [1]; in the assay with HT-29 colon cancer cells; in assay [2]; in assay [3]; in assay [4]) was 1 to 10 µM each time.

In the case of `Cc1ccccc1-c1cc2nc(Nc3ccc(N4CCN(C)CC4)cc3)ncc2[nH]1` [Example A17, N-(4-(4-methylpiperazin-1-yl)phenyl)-6-(o-tolyl)-5H-pyrrolo[3,2-d]pyrimidin-2-amine], the concentration for half-maximal inhibition (IC50) on human RIPK2 kinase was at most 0.1 µM.

In the case of `Cc1ccccc1-c1cc2nc(NCCCN3CCOCC3)ncc2[nH]1` [Example A19, N-(3-morpholinopropyl)-6-(o-tolyl)-5H-pyrrolo[3,2-d]pyrimidin-2-amine], on human RIPK2 kinase, the IC50 was over 0.5 µM.

For `OCCN1CCN(c2cccc(Nc3ncc4[nH]c(-c5ccccc5Cl)cc4n3)c2)CC1` [Example A16, 2-(4-(3-((6-(2-chlorophenyl)-5H-pyrrolo[3,2-d]pyrimidin-2-yl)amino)phenyl)piperazin-1-yl) ethanol], on human RIPK2 kinase, the half-maximal inhibitory concentration (IC50) is at most 0.1 µM.
